Test results reported in US20220018849A1, “SERINE HYDROLASE PROFILING ASSAY IN BIOTHERAPEUTICS” (Merck Sharp & Dohme Corp., priority 2020, published 2022).

What was measured:
[1] = reference 6; cited from earlier work
[2] = PS-80 degradation in protein formulations containing PLBL2 (unpublished results); type: physicochemical; conditions: protein formulations containing over 500 ppm of PLBL2
serine hydrolases = experiment: Activity-based chemical proteomics approach (fluorophosphonate probe enrichment, LC-MS/MS); conditions: HCCF, compared to other lipases

phospholipase A2, group XV [Pla2g15]
concentration at which PS-80 and PS-20 are degraded (as low as) [1]: 0.3 ppm | concentration with significant impact on PS-80 degradation [1]: below 1 ppm

phospholipase B domain containing 2 [Plbd2]
PS-80 degradation [2]: without any PS-80 degradation | enrichment of the enzyme by the chemical probes (serine hydrolases; listed as CHO PLBL2): not enriched | enrichment of the enzyme by the chemical probes (serine hydrolases; listed as Plbl2): limited enrichment
